Data from ChEMBL document CHEMBL4507305, “Data for DCP probe TP-024” (2021).

Key:
[1] = molecular target: Membrane-associated tyrosine- and threonine-specific cdc2-inhibitory kinase (Homo sapiens) (UniProt Q99640); details: Compound concentration 1000.0 nM
[2] = molecular target: 5'-AMP-activated protein kinase catalytic subunit alpha-2 (Homo sapiens) (UniProt P54646); details: Compound concentration 1000.0 nM
[3] = molecular target: Mitogen-activated protein kinase kinase kinase kinase 3 (Homo sapiens) (UniProt Q8IVH8); details: Compound concentration 1000.0 nM
Chain of Mitogen-activated protein kinase kinase kinase kinase 3 (Homo sapiens) (Q8IVH8 whole entry): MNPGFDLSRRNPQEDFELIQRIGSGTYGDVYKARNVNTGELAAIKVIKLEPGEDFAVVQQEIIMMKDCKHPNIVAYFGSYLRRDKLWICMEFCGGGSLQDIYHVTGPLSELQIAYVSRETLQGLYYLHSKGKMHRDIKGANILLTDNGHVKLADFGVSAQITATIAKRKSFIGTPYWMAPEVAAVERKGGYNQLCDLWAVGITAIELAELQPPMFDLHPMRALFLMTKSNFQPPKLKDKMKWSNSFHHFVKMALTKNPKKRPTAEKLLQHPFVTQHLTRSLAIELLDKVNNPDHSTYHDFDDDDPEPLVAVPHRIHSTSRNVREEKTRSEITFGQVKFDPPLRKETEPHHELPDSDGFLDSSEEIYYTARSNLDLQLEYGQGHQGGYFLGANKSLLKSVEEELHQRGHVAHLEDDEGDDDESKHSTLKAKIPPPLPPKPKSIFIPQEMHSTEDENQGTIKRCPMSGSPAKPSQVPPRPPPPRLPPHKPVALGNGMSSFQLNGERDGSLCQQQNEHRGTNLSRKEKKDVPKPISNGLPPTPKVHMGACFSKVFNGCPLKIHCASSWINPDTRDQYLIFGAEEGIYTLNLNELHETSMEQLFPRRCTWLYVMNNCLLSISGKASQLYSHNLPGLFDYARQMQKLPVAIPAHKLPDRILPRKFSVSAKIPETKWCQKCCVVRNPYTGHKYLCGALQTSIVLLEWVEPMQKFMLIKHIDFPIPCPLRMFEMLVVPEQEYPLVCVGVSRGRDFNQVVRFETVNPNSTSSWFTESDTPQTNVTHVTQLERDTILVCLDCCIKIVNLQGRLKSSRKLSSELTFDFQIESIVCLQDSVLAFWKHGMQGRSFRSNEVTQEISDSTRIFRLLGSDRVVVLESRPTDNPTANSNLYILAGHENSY

[4] = system: Leucine-rich repeat serine/threonine-protein kinase 2 (Homo sapiens), Q5S007 [G2019S]; details: Compound concentration 1000.0 nM
[5] = molecular target: Serine/threonine-protein kinase TBK1 (Homo sapiens) (UniProt Q9UHD2); details: Compound concentration 1000.0 nM
[6] = system: Phosphatidylinositol 4,5-bisphosphate 3-kinase catalytic subunit alpha isoform (Homo sapiens), P42336 [H1047L]; details: Compound concentration 1000.0 nM
Chain of Phosphatidylinositol 4,5-bisphosphate 3-kinase catalytic subunit alpha isoform (Homo sapiens), P42336 [H1047L] (P42336 whole entry H1047L, canonical isoform): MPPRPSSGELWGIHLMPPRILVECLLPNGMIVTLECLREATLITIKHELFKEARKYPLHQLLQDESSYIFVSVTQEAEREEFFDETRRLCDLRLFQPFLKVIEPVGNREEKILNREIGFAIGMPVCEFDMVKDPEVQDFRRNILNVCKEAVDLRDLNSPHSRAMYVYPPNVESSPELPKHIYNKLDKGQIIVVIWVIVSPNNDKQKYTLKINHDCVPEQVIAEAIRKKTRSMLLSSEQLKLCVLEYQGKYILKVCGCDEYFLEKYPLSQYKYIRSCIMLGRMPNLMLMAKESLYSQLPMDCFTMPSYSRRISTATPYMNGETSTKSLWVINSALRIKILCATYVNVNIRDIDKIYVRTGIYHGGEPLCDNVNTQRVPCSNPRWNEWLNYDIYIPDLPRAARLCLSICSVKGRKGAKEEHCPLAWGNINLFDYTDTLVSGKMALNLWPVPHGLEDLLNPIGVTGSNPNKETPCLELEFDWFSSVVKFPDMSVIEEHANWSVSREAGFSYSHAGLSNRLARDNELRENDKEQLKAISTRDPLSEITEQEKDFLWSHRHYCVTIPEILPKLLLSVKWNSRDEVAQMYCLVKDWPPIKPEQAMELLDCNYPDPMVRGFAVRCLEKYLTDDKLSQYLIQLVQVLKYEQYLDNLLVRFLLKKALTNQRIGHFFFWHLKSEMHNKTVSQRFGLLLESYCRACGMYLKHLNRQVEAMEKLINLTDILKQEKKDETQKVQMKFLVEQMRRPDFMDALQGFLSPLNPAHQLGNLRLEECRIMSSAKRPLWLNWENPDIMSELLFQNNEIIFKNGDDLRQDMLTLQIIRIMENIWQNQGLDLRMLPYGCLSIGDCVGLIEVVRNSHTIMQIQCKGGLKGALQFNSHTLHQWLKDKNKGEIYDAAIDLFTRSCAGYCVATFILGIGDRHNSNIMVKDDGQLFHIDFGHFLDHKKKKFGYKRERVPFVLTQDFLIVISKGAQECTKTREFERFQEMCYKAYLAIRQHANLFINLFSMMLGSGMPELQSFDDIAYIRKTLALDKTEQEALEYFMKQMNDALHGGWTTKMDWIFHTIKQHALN

[7] = molecular target: Protein kinase C epsilon type (Homo sapiens) (UniProt Q02156); details: Compound concentration 1000.0 nM
Chain of Protein kinase C epsilon type (Homo sapiens) (Q02156 whole entry): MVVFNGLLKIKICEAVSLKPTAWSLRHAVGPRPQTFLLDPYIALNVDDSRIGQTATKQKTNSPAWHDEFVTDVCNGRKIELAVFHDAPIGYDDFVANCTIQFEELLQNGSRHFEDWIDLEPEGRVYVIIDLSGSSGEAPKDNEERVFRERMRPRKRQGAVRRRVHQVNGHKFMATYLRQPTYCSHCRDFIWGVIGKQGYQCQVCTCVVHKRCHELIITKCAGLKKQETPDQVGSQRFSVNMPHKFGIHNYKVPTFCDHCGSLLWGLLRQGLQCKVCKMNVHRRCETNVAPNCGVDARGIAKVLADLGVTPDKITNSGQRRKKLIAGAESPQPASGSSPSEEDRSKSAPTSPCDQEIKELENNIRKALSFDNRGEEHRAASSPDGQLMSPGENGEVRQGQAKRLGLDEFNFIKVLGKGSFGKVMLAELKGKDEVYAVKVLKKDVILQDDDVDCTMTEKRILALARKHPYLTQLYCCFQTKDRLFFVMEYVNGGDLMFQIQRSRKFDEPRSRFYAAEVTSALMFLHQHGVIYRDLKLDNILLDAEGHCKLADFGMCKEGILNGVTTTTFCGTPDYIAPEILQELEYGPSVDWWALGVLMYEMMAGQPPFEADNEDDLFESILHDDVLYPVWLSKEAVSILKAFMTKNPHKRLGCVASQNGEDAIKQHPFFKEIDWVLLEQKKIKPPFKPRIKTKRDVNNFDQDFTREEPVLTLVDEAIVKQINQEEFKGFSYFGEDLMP

[8] = molecular target: Tyrosine-protein kinase ABL1 (Homo sapiens) (UniProt P00519); details: Compound concentration 1000.0 nM
[9] = molecular target: Cyclin-dependent kinase-like 5 (Homo sapiens) (UniProt O76039); details: Compound concentration 1000.0 nM
[10] = molecular target: Dual specificity mitogen-activated protein kinase kinase 4 (Homo sapiens) (UniProt P45985); details: Compound concentration 1000.0 nM
[11] = molecular target: STE20-like serine/threonine-protein kinase (Homo sapiens) (UniProt Q9H2G2); details: Compound concentration 1000.0 nM
[12] = molecular target: Tyrosine-protein kinase Lck (Homo sapiens) (UniProt P06239); details: Compound concentration 1000.0 nM
[13] = molecular target: Serine/threonine-protein kinase ULK3 (Homo sapiens) (UniProt Q6PHR2); details: Compound concentration 1000.0 nM
[14] = molecular target: Mitogen-activated protein kinase kinase kinase 4 (Homo sapiens) (UniProt Q9Y6R4); details: Compound concentration 1000.0 nM
[15] = molecular target: Serine/threonine-protein kinase WNK4 (Homo sapiens) (UniProt Q96J92); details: Compound concentration 1000.0 nM
[16] = molecular target: Activin receptor type-1-like (Homo sapiens) (UniProt P37023); details: Compound concentration 1000.0 nM
Chain of Activin receptor type-1-like (Homo sapiens) (P37023 whole entry): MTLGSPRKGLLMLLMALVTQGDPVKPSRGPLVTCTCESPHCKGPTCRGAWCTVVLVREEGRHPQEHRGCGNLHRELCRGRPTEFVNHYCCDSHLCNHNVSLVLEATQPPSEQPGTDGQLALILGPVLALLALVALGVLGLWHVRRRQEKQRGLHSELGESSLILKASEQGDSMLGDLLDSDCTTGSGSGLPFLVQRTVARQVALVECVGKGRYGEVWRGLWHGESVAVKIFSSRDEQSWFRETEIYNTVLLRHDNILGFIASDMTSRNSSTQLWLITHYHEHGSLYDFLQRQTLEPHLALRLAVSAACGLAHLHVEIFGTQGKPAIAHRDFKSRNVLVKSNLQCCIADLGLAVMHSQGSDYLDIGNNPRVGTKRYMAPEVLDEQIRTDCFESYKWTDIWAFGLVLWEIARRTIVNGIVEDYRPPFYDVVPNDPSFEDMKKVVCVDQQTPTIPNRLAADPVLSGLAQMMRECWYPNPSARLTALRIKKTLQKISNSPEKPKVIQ

[17] = molecular target: Muscle, skeletal receptor tyrosine-protein kinase (Homo sapiens) (UniProt O15146); details: Compound concentration 1000.0 nM
Chain of Muscle, skeletal receptor tyrosine-protein kinase (Homo sapiens) (O15146 whole entry): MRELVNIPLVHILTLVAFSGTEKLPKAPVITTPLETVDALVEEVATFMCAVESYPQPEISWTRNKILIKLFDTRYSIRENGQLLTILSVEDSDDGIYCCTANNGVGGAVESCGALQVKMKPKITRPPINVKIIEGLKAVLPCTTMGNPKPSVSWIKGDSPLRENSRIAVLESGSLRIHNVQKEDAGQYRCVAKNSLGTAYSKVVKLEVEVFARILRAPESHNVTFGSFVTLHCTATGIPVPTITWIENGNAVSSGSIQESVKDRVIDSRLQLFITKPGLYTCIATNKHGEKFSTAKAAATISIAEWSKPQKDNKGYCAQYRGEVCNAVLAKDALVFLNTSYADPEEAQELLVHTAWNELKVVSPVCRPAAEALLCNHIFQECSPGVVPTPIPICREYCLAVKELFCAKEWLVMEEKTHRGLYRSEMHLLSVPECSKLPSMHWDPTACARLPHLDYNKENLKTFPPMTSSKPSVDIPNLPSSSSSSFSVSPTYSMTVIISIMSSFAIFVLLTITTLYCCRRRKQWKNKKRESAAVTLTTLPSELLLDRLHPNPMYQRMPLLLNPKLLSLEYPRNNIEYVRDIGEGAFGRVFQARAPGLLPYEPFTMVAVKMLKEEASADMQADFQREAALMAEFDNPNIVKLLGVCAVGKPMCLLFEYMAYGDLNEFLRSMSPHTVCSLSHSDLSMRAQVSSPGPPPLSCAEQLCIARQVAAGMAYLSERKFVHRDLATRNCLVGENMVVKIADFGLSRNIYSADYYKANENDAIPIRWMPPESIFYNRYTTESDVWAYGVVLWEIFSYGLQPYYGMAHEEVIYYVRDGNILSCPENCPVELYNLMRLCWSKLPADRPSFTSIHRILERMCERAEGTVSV

[18] = molecular target: Mitogen-activated protein kinase kinase kinase 19 (Homo sapiens) (UniProt Q56UN5); details: Compound concentration 1000.0 nM
[19] = molecular target: Muscarinic acetylcholine receptor M1 (Homo sapiens) (UniProt P11229); details: Compound concentration 10.0 uM
[20] = system: Mast/stem cell growth factor receptor Kit (Homo sapiens), P10721 [A829P]; details: Compound concentration 1000.0 nM
[21] = molecular target: Mitogen-activated protein kinase kinase kinase 7 (Homo sapiens) (UniProt O43318); details: Compound concentration 1000.0 nM
[22] = molecular target: cGMP-dependent protein kinase 1 (Homo sapiens) (UniProt Q13976); details: Compound concentration 1000.0 nM
[23] = molecular target: Tyrosine-protein kinase Fer (Homo sapiens) (UniProt P16591); details: Compound concentration 1000.0 nM
[24] = molecular target: Cyclin-dependent kinase 7 (Homo sapiens) (UniProt P50613); details: Compound concentration 1000.0 nM
[25] = molecular target: Hormonally up-regulated neu tumor-associated kinase (Homo sapiens) (UniProt P57058); details: Compound concentration 1000.0 nM
[26] = molecular target: Serine/threonine-protein kinase pim-3 (Homo sapiens) (UniProt Q86V86); details: Compound concentration 1000.0 nM
[27] = molecular target: Cyclin-dependent kinase 4 (Homo sapiens) (UniProt P11802); details: Compound concentration 1000.0 nM
[28] = molecular target: Bone morphogenetic protein receptor type-1B (Homo sapiens) (UniProt O00238); details: Compound concentration 1000.0 nM
[29] = molecular target: Serine/threonine-protein kinase Nek2 (Homo sapiens) (UniProt P51955); details: Compound concentration 1000.0 nM
[30] = molecular target: Cyclin-dependent kinase 15 (Homo sapiens) (UniProt Q96Q40); details: Compound concentration 1000.0 nM
[31] = molecular target: Non-receptor tyrosine-protein kinase TNK1 (Homo sapiens) (UniProt Q13470); details: Compound concentration 1000.0 nM
[32] = system: Phosphatidylinositol 4,5-bisphosphate 3-kinase catalytic subunit alpha isoform (Homo sapiens), P42336 [E545A]; details: Compound concentration 1000.0 nM
Chain of Phosphatidylinositol 4,5-bisphosphate 3-kinase catalytic subunit alpha isoform (Homo sapiens), P42336 [E545A] (P42336 whole entry E545A, canonical isoform): as the sequence (P42336 whole entry H1047L, canonical isoform) above, with E545A, L1047H counted along it

[33] = molecular target: Proto-oncogene tyrosine-protein kinase receptor Ret (Homo sapiens) (UniProt P07949); details: Compound concentration 1000.0 nM
[34] = molecular target: Tyrosine-protein kinase Blk (Homo sapiens) (UniProt P51451); details: Compound concentration 1000.0 nM
[35] = molecular target: Mitogen-activated protein kinase 7 (Homo sapiens) (UniProt Q13164); details: Compound concentration 1000.0 nM
[36] = molecular target: Mitotic checkpoint serine/threonine-protein kinase BUB1 (Homo sapiens) (UniProt O43683); details: Compound concentration 1000.0 nM
[37] = molecular target: Tyrosine-protein kinase SYK (Homo sapiens) (UniProt P43405); details: Compound concentration 1000.0 nM
[38] = system: Serine/threonine-protein kinase B-raf (Homo sapiens), P15056 [V600E]; details: Compound concentration 1000.0 nM
Chain of Serine/threonine-protein kinase B-raf (Homo sapiens), P15056 [V600E] (P15056 whole entry V600E): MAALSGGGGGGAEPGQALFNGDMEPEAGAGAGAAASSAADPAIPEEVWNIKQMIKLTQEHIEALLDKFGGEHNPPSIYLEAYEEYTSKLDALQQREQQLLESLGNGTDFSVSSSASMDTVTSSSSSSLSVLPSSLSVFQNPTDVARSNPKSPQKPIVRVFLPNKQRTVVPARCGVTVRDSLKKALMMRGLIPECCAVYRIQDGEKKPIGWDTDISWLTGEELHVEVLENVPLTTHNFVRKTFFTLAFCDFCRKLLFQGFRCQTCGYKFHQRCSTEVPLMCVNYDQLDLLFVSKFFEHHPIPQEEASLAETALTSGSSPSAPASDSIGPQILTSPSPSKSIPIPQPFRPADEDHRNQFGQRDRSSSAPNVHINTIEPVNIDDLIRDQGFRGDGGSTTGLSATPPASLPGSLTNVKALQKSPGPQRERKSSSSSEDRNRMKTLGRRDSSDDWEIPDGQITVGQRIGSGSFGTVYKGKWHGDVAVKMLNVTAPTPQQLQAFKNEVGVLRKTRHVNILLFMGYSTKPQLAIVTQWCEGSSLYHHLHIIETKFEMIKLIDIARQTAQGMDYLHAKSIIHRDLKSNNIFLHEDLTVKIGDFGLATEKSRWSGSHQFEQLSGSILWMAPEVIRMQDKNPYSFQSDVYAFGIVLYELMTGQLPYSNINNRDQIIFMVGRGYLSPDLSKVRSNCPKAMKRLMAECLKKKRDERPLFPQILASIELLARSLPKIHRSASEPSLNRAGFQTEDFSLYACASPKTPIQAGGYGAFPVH

[39] = molecular target: Serine/threonine-protein kinase haspin (Homo sapiens) (UniProt Q8TF76); details: Compound concentration 1000.0 nM
[40] = molecular target: GABA-A receptor; anion channel (Rattus norvegicus) (UniProt O09028+P15431+P18506+P18508+P19969+P20236+P23574+P23576+P28471+P28473+P30191+P62813+P63079+P63138+Q91ZM7+Q9ES14); details: Compound concentration 10.0 uM
[41] = molecular target: Tyrosine-protein kinase CSK (Homo sapiens) (UniProt P41240); details: Compound concentration 1000.0 nM
[42] = molecular target: Histamine H4 receptor (Homo sapiens) (UniProt Q9H3N8); details: Compound concentration 10.0 uM
[43] = molecular target: Serine/threonine-protein kinase VRK2 (Homo sapiens) (UniProt Q86Y07); details: Compound concentration 1000.0 nM

Cc1cc(-n2nc(Cc3cc(F)cc(C(F)(F)F)c3)nc2C)ccc1C(N)=O [TP-024]
inactive: residual activity [1] 88% | residual activity [2] 100% | residual activity [3] 69% | residual activity [4] 100% | residual activity [5] 89% | residual activity [6] 87% | residual activity [7] 100% | residual activity [8] 100% | residual activity [9] 100% | residual activity [10] 100% | residual activity [11] 92% | residual activity [12] 100% | residual activity [13] 100% | residual activity [14] 98% | residual activity [15] 100% | residual activity [16] 100% | residual activity [17] 100% | residual activity [18] 98% | inhibition [19] -7.57% | residual activity [20] 100% | residual activity [21] 100% | residual activity [22] 100% | residual activity [23] 79% | residual activity [24] 100% | residual activity [25] 89% | residual activity [26] 100% | residual activity [27] 100% | residual activity [28] 100% | residual activity [29] 100% | residual activity [30] 88% | residual activity [31] 69% | residual activity [32] 100% | residual activity [33] 96% | residual activity [34] 100% | residual activity [35] 100% | residual activity [36] 100% | residual activity [37] 87% | residual activity [38] 100% | residual activity [39] 100% | inhibition [40] 14.4% | residual activity [41] 97% | inhibition [42] 1.73% | residual activity [43] 100%

Cc1nc(Cc2cccc(C(F)(F)F)c2)sc1-c1ccc(C(N)=O)nc1 [TP-024n]
inactive: residual activity [1] 67% | residual activity [2] 96% | residual activity [3] 76% | residual activity [4] 82% | residual activity [5] 91% | residual activity [6] 72% | residual activity [7] 100% | residual activity [8] 98% | residual activity [9] 100% | residual activity [10] 100% | residual activity [11] 100% | residual activity [12] 100% | residual activity [13] 100% | residual activity [14] 72% | residual activity [15] 100% | residual activity [16] 99% | residual activity [17] 89% | residual activity [18] 100% | inhibition [19] 10% | residual activity [20] 96% | residual activity [21] 93% | residual activity [22] 87% | residual activity [23] 100% | residual activity [24] 90% | residual activity [25] 90% | residual activity [26] 100% | residual activity [27] 90% | residual activity [28] 94% | residual activity [29] 100% | residual activity [30] 86% | residual activity [31] 85% | residual activity [32] 100% | residual activity [33] 100% | residual activity [34] 100% | residual activity [35] 88% | residual activity [36] 100% | residual activity [37] 100% | residual activity [38] 100% | residual activity [39] 100% | inhibition [40] 9.72% | residual activity [41] 88% | inhibition [42] 7.74% | residual activity [43] 100%
